Laboratory results as given in patent US6583137B1, “Protease inhibitors” (SmithKline Beecham Corporation, priority 1999, dated 2003).

Assay: Chiral / configurational stability at the carbon alpha to the ketone
Type: physicochemical

Compound: [2H]C1(NC(=O)[C@H](CC(C)C)NC(=O)c2cnc3ccccc3n2)CCCN(S(=O)(=O)c2cccc[n+]2[O-])C([2H])([2H])C1=O (stereo partly drawn) [present compound, quinoxaline-2-carboxylic acid {(S)-3-methyl-1-[(2,2′,4-trideuterio)-3-oxo-1-(1-oxy-pyridine-2-sulfonyl)-azepan-4-ylcarbamoyl]-butyl}amide]
- configurational stability at the carbon center alpha to the ketone (compared to the corresponding 5 and 6 membered ring compounds): configurationally more stable
- chiral stability (compared to the protonated isomer): superior chiral stability
